Data reported in US4994617A, “Aminoalcohols, their preparation process and their applications, particularly in therapeutics” (Jouveinal S.A., priority 1986, dated 1991).

Columns and labels:
mice [1] = assay: tail hanging test, activity on the S.N.C. (central nervous system), mice, oral; assay type: in vivo, mouse; conditions: 1 hour before the test; for change in vivo at 32 mg/kg / change in vivo at 128 mg/kg: Mus musculus, po, 1 h, read-out: S.N.C.: Hanging test, activity percentages compared with the controls
Protocol: This activity was investigated on mice using the tail hanging test in accordance with the procedure described by Thierry et al. (Behavioral and Neural Biology, 1984, 41, 180-189), which was proposed as a model for the animal for the selection of products active on the S.N.C.
The tests were carried out on batches of 10 male mice for each product and at each dose, the substances to be investigated being administered orally in aqueous solution 1 hour before the test, a control batch only receiving distilled water.
The results of the tests are given in activity percentages compared with the controls.

mice [2] = assay: acetic acid test, analgesic activity, mice, oral; assay type: in vivo, mouse; conditions: for Analgesia: Acetic acid test, percentages of analgesed animals: Dose: 30 mg/kg, 30 minutes before acetic acid injection; for ED50: Mus musculus, read-out: Analgesia: Acetic acid test, ED50 (dose causing analgesia of 50% of the animals)
Protocol: This was investigated and determined on mice using the acetic acid test according to a procedure derived from that of Troster R. (Fed. Proc. 1959, 18, 412).
20 hours prior to the test, the animals were starved of food and drink. This was followed by the oral administration in aqueous solution of the product to be investigated at a rate of 2 ml of solution per 100 g of body weight, which was followed 30 minutes later by an intraperitoneal injection of 0.25 ml of 0.25% acetic acid solution (wt/v) maintained at 37° C. 30 minutes after this injection, the number of abdominal cramps suffered by the animals were counted for a period of 10 minutes.
The animals were considered to be analgesed when the number of cramps suffered was less than half the mean value of the cramps experienced by the controls.
The products were administered at a dose rate of 30 mg-kg^-1 and the results are given in percentages of analgesed animals. For certain products, several doses were administered and the calculation of their ED50 (dose causing analgesia of 50% of the animals) was determined in log probability units.

| Structure (SMILES) | change in vivo at 32 mg/kg (mice [1]; Dose: 32 mg/kg) | change in vivo at 128 mg/kg (mice [1]; Dose: 128 mg/kg) | Analgesia: Acetic acid test, percentages of analgesed animals (mice [2]) | also measured |
| --- | --- | --- | --- | --- |
| CN(C)C(C)(CO)Cc1ccc(Cl)c(Cl)c1 (racemic) [JO 1017, (±) 2-methyl-2-dimethylamino-3-(3,4-dichlorophenyl)-propanol] | -65% | -85% | -86% | ED50 (mice [2]): 14 mg/kg |
| CN(C)C(C)(CO)Cc1ccc(Cl)c(Cl)c1 (single isomer, unassigned; (+)) [JO 1240, (+) 2-methyl-2-dimethylamino-3-(3,4-dichlorphenyl)-propanol] | – | – | – | S.N.C.: Hanging test, activity percentages compared with the controls (mice [1]; Dose: 32 mg/kg, 32 mg/kg): -77%; S.N.C.: Hanging test, activity percentages compared with the controls (mice [1]; Dose: 128 mg/kg, 128 mg/kg): -85% |
| CC(C)C(N)(CO)Cc1ccc(Cl)c(Cl)c1 (racemic) [JO 1579, (±) 2-isopropyl-2-amino-3 (3,4-dichlorophenyl)-propanol] | – | -67% | – | – |
| CCCCCC(CO)(Cc1ccc(Cl)c(Cl)c1)NC (racemic) [JO 1563, (±) 2-penthyl-2-methylamino-3-(3,4-dichlorophenyl)-propanol] | -49% | -71% | – | – |
| CCNC(C)(CO)Cc1ccc(Cl)c(Cl)c1 (racemic) [JO 1277, (±) 2-methyl-2-ethylamino-3-(3,4-dichlorophenyl)-propanol] | – | – | -43% | – |
| C=CCN(C)C(C)(CO)Cc1ccc(Cl)c(Cl)c1 (racemic) [JO 1581, (±) 21-methyl-2-(N-methyl, N-allyl)-amino-3-(3,4-dichlorophenyl)-propanol] | – | -61% | – | – |
| CN(C)CCCN1c2ccccc2CCc2ccc(Cl)cc21 [Clomipramine, clomipramine, reference compound] | -49% | -54% | – | – |
| CN(C)C(C)(CO)Cc1ccc(Cl)c(Cl)c1 (single isomer, unassigned; (-)) [JO 1239, (-) 2-methyl-2-dimethylamino-3-(3,4-dichlorophenyl)-propanol] | – | – | -86% | S.N.C.: Hanging test, activity percentages compared with the controls (mice [1]; Dose: 32 mg/kg, 32 mg/kg): -74%; S.N.C.: Hanging test, activity percentages compared with the controls (mice [1]; Dose: 128 mg/kg, 128 mg/kg): -64%; ED50 (mice [2]): 11 mg/kg |
| CN(CCc1ccccc1)C(C)(CO)Cc1ccc(Cl)c(Cl)c1 (racemic) [JO 1457, (±) 2-methyl-2-[N-methyl, N-(2-phenyl)-ethyl]-amino-3-(3,4-dichlorophenyl)-propanol] | -60% | – | – | – |
| CNC(C)(CO)Cc1ccc(Cl)c(Cl)c1 (racemic) [JO 1276, (±) 2-methyl-2-methylamino-3-(3,4-dichlorophenyl)-propanol] | -58% | -83% | -86% | ED50 (mice [2]): 8.5 mg/kg |
| CNC(C)(CO)Cc1ccc(Cl)c(Cl)c1 (single isomer, unassigned; (+)) [JO 1308, (+) 2-methyl-2-methylamino-3-(3,4-dichlorophenyl)-propanol] | – | – | -88% | – |
| CCCCCC(N)(CO)Cc1ccc(Cl)c(Cl)c1 (racemic) [JO 1562, (±) 2-pentyl-2-amino-3 (3,4-dichlorophenyl)-propanol] | -73% | – | – | – |
| CCCCCC(CO)(Cc1ccc(Cl)c(Cl)c1)N(C)C (racemic) [JO 1564, (±) 2-pentyl-2-dimethylamino-3-(3,4-dichlorophenyl)-propanol] | – | -74% | – | – |
| CCNC(C)(CO)Cc1ccc(Cl)c(Cl)c1 (single isomer, unassigned; (-)) [JO 1296, (-) 2-methyl-2-ethylamino-3-(3,4-dichlorophenyl)-propanol] | – | – | -38% | – |
| CC(N)(CO)Cc1ccc(Cl)c(Cl)c1 (single isomer, unassigned; (+)) [JO 1307, (+) 2-methyl-2-amino-3-(3,4-dichlorophenyl)-propanol] | – | – | -50% | – |
| CCN(C)C(C)(CO)Cc1ccc(Cl)c(Cl)c1 (racemic) [JO 1291, (±) 2-methyl-2-(N-methyl, N-ethyl)-amino-3-(3,4-dichlorophenyl)-propanol] | -58% | – | -38% | – |
| CC(N)(CO)Cc1ccc(Cl)c(Cl)c1 (racemic) [JO 1275, (±) 2-methyl-2-amino-3-(3,4-dichlorophenyl)-propanol] | -78% | -86% | -43% | – |
